Type in all cases: cell-based
In experiment [1] the target is T1, von Hippel-Lindau disease tumor suppressor/Receptor-type tyrosine-protein kinase FLT3 (Homo sapiens, UniProt P36888+P40337). The experiment is described as follows: PROTAC activity at VHL/FLT3 in human MV4-11 cells assessed as FLT3 degradation by measuring maximal efficacy by Western blot analysis relative to control.
Target sequence in this assay (P36888 27-993 limits assumed): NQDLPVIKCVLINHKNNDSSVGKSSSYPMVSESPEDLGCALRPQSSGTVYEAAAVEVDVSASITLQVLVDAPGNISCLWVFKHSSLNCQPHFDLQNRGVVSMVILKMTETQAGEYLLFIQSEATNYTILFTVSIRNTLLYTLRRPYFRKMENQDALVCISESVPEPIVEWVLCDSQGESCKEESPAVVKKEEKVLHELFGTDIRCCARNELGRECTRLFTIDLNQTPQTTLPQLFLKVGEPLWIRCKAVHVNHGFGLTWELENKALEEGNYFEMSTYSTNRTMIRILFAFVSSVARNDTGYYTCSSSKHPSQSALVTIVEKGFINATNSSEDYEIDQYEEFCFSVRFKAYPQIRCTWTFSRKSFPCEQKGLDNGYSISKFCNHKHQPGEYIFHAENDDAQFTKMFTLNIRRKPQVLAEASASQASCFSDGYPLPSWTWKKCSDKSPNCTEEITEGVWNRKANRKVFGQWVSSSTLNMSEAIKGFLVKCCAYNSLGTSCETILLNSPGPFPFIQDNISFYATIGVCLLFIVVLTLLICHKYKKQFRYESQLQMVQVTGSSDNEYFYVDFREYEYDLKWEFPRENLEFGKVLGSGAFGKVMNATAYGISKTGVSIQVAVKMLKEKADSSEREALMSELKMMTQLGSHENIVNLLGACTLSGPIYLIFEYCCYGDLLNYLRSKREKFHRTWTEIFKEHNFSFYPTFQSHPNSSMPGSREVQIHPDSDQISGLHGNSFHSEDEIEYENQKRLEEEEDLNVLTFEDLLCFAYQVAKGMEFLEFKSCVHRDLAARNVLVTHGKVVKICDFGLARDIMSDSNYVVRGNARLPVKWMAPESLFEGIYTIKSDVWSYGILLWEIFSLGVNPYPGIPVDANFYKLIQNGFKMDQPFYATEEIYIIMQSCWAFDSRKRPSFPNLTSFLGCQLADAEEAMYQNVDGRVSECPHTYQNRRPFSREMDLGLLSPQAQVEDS
Target sequence in this assay (P40337 whole entry partner): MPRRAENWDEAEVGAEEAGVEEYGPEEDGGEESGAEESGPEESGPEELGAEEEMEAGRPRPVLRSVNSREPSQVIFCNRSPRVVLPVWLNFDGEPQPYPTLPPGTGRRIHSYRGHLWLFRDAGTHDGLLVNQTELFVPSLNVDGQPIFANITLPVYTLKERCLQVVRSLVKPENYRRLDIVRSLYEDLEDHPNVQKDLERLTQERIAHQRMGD
For experiment [2], the target named is T1, von Hippel-Lindau disease tumor suppressor/Receptor-type tyrosine-protein kinase FLT3. The experiment can be described thus: PROTAC activity at VHL/FLT3 in human MV4-11 cells assessed as induction of FLT3 degradation by Western blot analysis.
Experiment [3] has as its target von Hippel-Lindau disease tumor suppressor/Leucine-rich repeat serine/threonine-protein kinase 2 (Homo sapiens) (UniProt Q5S007+P40337). The experiment can be described thus: PROTAC activity at VHL/LRRK2 in human MV4-11 cells assessed as LRRK2 degradation by measuring maximal efficacy by Western blot analysis relative to control.
The target in experiment [4] is von Hippel-Lindau disease tumor suppressor/Leucine-rich repeat serine/threonine-protein kinase 2 (Homo sapiens, UniProt P40337+Q5S007). The experiment can be described thus: PROTAC activity at VHL/LRRK2 in human MV4-11 cells assessed as induction of LRRK2 degradation by Western blot analysis.
Experiment [5] deals with von Hippel-Lindau disease tumor suppressor/Bromodomain-containing protein 4 (Homo sapiens, UniProt O60885+P40337). The experiment is described as follows: PROTAC activity in VHL/BRD4 in human MV4-11 cells assessed as induction of BRD4 degradation by Western blot analysis.
Experiment [6] addresses von Hippel-Lindau disease tumor suppressor/Cyclin-dependent kinase 6 (Homo sapiens, UniProt P40337+Q00534). The experiment can be described thus: PROTAC activity at VHL/CDK6 in human MV4-11 cells assessed as induction of CDK6 degradation by Western blot analysis.
Experiment [7] deals with von Hippel-Lindau disease tumor suppressor/Cyclin-dependent kinase 6 (Homo sapiens) (UniProt Q00534+P40337). The experiment can be described thus: PROTAC activity at VHL/CDK6 in human MV4-11 cells assessed as CDK6 degradation by measuring maximal efficacy by Western blot analysis.
Sequence of von Hippel-Lindau disease tumor suppressor/Cyclin-dependent kinase 6 (Homo sapiens) (P40337 whole entry, looked up): as the sequence (P40337 whole entry partner) above
Sequence of von Hippel-Lindau disease tumor suppressor/Cyclin-dependent kinase 6 (Homo sapiens) (Q00534 whole entry, looked up): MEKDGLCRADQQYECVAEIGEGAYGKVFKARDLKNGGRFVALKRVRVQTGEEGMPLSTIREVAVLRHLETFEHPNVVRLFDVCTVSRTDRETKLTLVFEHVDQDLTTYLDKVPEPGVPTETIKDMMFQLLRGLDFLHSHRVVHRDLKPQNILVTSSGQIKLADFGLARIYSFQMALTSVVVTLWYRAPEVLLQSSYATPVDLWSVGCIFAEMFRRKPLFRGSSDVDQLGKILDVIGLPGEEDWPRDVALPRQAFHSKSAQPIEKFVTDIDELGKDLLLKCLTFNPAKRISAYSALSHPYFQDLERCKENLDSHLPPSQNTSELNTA

Sequence of von Hippel-Lindau disease tumor suppressor/Leucine-rich repeat serine/threonine-protein kinase 2 (Q5S007 whole entry): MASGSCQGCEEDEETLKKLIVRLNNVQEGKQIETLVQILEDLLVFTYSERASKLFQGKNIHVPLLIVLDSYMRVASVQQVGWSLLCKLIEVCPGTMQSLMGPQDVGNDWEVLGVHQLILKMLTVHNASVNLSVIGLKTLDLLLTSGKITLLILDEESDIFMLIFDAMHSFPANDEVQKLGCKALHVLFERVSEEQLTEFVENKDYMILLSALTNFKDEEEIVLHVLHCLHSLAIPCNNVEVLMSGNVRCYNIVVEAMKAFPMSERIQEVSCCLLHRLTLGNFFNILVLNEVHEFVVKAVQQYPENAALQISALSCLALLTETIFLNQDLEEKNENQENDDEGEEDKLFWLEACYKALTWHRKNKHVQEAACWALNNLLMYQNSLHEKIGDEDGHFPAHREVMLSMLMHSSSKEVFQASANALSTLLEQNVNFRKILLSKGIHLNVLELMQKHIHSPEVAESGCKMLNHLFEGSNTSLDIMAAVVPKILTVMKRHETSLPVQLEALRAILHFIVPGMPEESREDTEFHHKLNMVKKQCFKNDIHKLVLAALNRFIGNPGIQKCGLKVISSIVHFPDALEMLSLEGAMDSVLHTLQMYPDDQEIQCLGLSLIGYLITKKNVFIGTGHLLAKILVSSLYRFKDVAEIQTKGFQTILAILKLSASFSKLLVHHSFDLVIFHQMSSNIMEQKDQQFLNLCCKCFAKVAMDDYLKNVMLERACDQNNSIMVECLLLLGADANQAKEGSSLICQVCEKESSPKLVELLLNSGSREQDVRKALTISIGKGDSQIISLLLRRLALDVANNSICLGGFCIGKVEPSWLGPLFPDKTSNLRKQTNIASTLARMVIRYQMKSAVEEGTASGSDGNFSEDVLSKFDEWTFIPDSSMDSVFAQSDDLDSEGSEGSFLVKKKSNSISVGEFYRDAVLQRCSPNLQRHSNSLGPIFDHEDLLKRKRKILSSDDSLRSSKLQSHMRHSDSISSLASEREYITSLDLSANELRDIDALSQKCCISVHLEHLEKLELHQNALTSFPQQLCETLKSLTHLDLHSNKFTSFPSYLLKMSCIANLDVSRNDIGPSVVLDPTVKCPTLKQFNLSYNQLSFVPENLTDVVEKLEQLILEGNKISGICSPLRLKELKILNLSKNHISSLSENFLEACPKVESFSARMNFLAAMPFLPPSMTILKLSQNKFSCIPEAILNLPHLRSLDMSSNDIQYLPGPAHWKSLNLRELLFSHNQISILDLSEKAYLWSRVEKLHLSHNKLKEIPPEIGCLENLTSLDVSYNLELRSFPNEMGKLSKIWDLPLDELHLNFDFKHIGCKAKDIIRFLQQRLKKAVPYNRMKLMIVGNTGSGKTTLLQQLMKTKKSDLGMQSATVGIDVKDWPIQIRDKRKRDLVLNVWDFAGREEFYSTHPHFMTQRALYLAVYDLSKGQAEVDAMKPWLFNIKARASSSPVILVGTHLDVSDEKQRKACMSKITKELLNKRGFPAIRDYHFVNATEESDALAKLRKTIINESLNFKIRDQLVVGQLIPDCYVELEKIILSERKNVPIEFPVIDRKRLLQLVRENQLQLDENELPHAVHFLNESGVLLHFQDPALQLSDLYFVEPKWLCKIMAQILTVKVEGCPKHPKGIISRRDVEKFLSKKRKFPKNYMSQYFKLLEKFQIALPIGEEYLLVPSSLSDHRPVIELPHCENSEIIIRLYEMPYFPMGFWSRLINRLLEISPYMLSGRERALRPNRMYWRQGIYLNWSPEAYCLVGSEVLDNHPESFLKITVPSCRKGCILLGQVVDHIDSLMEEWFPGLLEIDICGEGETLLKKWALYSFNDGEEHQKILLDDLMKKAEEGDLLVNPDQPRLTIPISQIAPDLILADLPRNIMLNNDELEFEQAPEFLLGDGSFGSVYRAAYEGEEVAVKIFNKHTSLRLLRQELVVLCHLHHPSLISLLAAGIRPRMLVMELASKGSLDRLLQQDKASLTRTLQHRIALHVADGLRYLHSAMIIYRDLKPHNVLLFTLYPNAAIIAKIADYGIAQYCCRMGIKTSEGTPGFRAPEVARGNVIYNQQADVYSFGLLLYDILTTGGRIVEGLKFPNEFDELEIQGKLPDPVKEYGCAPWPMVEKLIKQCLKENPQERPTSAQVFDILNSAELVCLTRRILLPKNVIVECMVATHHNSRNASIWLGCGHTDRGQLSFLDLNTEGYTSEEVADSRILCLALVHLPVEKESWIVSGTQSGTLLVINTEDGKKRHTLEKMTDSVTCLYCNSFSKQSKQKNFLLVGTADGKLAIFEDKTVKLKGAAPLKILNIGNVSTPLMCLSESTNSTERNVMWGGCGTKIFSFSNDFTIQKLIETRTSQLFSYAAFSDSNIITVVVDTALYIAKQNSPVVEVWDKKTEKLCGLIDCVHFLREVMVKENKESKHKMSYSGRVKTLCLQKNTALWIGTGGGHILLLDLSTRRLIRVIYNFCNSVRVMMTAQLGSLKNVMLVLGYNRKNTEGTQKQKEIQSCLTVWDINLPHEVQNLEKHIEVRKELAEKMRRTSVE
Sequence of von Hippel-Lindau disease tumor suppressor/Leucine-rich repeat serine/threonine-protein kinase 2 (P40337 whole entry): as the sequence (P40337 whole entry partner) above
Sequence of von Hippel-Lindau disease tumor suppressor/Cyclin-dependent kinase 6 (Q00534 whole entry): as the sequence (Q00534 whole entry, looked up) above
Sequence of von Hippel-Lindau disease tumor suppressor/Cyclin-dependent kinase 6 (P40337 whole entry): as the sequence (P40337 whole entry partner) above
Sequence of von Hippel-Lindau disease tumor suppressor/Bromodomain-containing protein 4 (P40337 whole entry, looked up, other chains not shown): as the sequence (P40337 whole entry partner) above
Sequence of von Hippel-Lindau disease tumor suppressor/Leucine-rich repeat serine/threonine-protein kinase 2 (Homo sapiens) (P40337 whole entry, looked up): as the sequence (P40337 whole entry partner) above
Sequence of von Hippel-Lindau disease tumor suppressor/Leucine-rich repeat serine/threonine-protein kinase 2 (Homo sapiens) (Q5S007 whole entry, looked up): as the sequence (Q5S007 whole entry) above

Take `Cc1ncsc1-c1ccc(CNC(=O)[C@@H]2C[C@@H](O)CN2C(=O)[C@@H](NC(=O)CCOCCOCCOc2ccc3c(c2)sc2nc(-c4ccc(NC(=O)Nc5cc(C(C)(C)C)on5)cc4)cn23)C(C)(C)C)cc1`: the Emax in experiment [1] came out at 90%. Moreover, the EC50 in experiment [2] is less than 5 nM.

For the compound `CNc1nc(Nc2ccc(C(=O)N3CCN(C[C@H]4CC[C@H](CSC(C)(C)[C@H](NC(=O)C5(F)CC5)C(=O)N5C[C@H](O)C[C@H]5C(=O)NCc5ccc(-c6scnc6C)cc5)CC4)CC3)cc2OC)ncc1Cl`, in experiment [3], the Emax is greater than 82%. Besides, the EC50 in experiment [4] worked out at 15 nM.

Take `Cc1cc([C@H](C(=O)N2C[C@H](O)C[C@H]2C(=O)N[C@@H](C)c2ccc(-c3scnc3C#CCOCCOCCOCCOCCNC(=O)C[C@@H]3N=C(c4ccc(Cl)cc4)c4c(sc(C)c4C)-n4c(C)nnc43)cc2)C(C)C)on1`: in experiment [5], the half-maximal effective concentration (EC50) worked out at 16 nM.

Regarding `CC(=O)c1c(C)c2cnc(Nc3ccc(N4CCN(CCOCCOCCOc5cc(-c6scnc6C)ccc5CNC(=O)[C@@H]5C[C@@H](O)CN5C(=O)[C@@H](NC(=O)C5(F)CC5)C(C)(C)C)CC4)cn3)nc2n(C2CCCC2)c1=O`, in experiment [6], the half-maximal effective concentration (EC50) is 5.1 nM. Besides, the Emax in experiment [7] came out at 95%.

The record behind these values is ChEMBL document CHEMBL5380878, “A beginner's guide to current synthetic linker strategies towards VHL-recruiting PROTACs” (Bioorg Med Chem, 2023).
